In US20250263396A1, “CRYSTALLINE FORMS OF 3-(5-(2-HYDROXY-2- METHYLPROPOXY)-6-METHYPYRAZIN-2-YL)-1H-INDOLE-7-CARBONITRILE” (NIDO BIOSCIENCES, INC., priority 2024, published 2025):
Read-outs that look alike come from different tables or passages of the source.

What was measured:
[1] = Competitive equilibration experiments
Procedure: Relative stability of the anhydrate Forms A, C, H and J was investigated with competitive equilibration experiments.
Relative stability of the anhydrates Forms C, K and L was investigated with competitive equilibration experiments.
Relative stability of the anhydrates Form C and Form P was systematically investigated with competitive equilibration experiments.
About 5 mg of Form C and about 5 mg of Form P were added to 0.25 mL of saturated solutions of selected solvents. Obtained suspensions were stirred at 25° C., 50° C. and 70° C. for 4 days, respectively. Solid parts (wet cakes) were isolated by centrifugation filtration and investigated by XRPD.
About 10 mg of Form C and about 10 mg of Form P were added to 0.5 mL saturated solutions of selected solvents. Obtained suspensions were stirred at 80/C and 90 C, respectively. Solid parts (wet cakes) were be isolated by centrifugation filtration and investigated by XRPD.
About 3 mg of the Form P and 3 mg of the mixture of Form P and Form J were added to 0.2 mL of saturated solutions of selected solvents. Obtained suspensions were stirred at 25° C., 50° C. and 70° C. for 4 days, respectively. Solid parts (wet cakes) were isolated by centrifugation filtration and investigated by XRPD.
About 3 mg of Form P and 3 mg of the physical mixture of Form P and Form R were added to 0.2 mL of saturated solutions of 2-MeTHF. Obtained suspensions were stirred at 25° C., 50° C. and 70° C., respectively. Solid parts (wet cakes) were isolated by centrifugation filtration and investigated by XRPD.
About 1.5 mg of Form P, 1.5 mg of Form X and 1.5 mg Form Y were added to 0.15 mL saturated solution of 2-MeTHF. Obtained suspensions were stirred at 25° C., 50° C. and 70° C., respectively. Solid parts (wet cake) were isolated by centrifugation filtration and investigated by XRPD.

[2] = Form change on heating, dehydration or desolvation (TGA, DSC, variable temperature XRPD); format: physicochemical; settings: variable temperature XRPD
Procedure: Relative stability of the anhydrates Form R and Form P was investigated by variable temperature XRPD and competitive equilibration experiments.
Relative stability of the anhydrates Form B, Form X, Form Y and Form C was investigated by variable temperature XRPD. Form B converted to Form X, Form Y and Form C after heating to 150° C., 176° C. and 180° C., respectively.

[3] = as above; format: physicochemical
[4] = Competitive water activity experiments; settings: whole range of water activity (0≤a.w.≤1)
[5] = Equilibration with solvents; format: physicochemical
Procedure: Obtained suspensions were filtered through a 0.45 μm nylon membrane filter by centrifugation at 14,000 rpm. Solid parts (wet cakes) were investigated by XRPD. For samples with different XRPD patterns, additional analysis including DSC, TGA, ^1H-NMR were performed.
(§1) Obtained suspensions were filtered through a 0.45 μm nylon membrane filter by centrifugation at 14,000 rpm.
as §1

Cc1nc(-c2c[nH]c3c(C#N)cccc23)cnc1OCC(C)(C)O [Form A, 3-(5-(2-hydroxy-2-methylpropoxy)-6-methylpyrazin-2-yl)-1H-indole-7-carbonitrile]
Form conversion (relative stability) ([1]; at both 25° C. and 50° C.): converts to Form C

Cc1nc(-c2c[nH]c3c(C#N)cccc23)cnc1OCC(C)(C)O [Form B, 3-(5-(2-hydroxy-2-methylpropoxy)-6-methylpyrazin-2-yl)-1H-indole-7-carbonitrile]
Form after heating ([2]; heating to 150° C.): Form X
Form after heating ([2]; heating to 176° C.): Form Y
Form after heating ([2]; heating to 180° C.): Form C
Form after dehydration [3]: converts to Form K
Relative stability in water activity experiments [4]: converts to anhydrate Form C

Cc1nc(-c2c[nH]c3c(C#N)cccc23)cnc1OCC(C)(C)O [Form C and Form P, 3-(5-(2-hydroxy-2-methylpropoxy)-6-methylpyrazin-2-yl)-1H-indole-7-carbonitrile]
XRPD after competitive equilibration ([1]; 1,4-Dioxane, 25° C. for 4 days): Form D
XRPD after competitive equilibration ([1]; 1,4-Dioxane, 50° C. for 4 days): Form D
XRPD after competitive equilibration ([1]; 1,4-Dioxane, 70° C. for 4 days): Form D
XRPD after competitive equilibration ([1]; 2-MeTHF, 25° C. for 4 days): Form P
XRPD after competitive equilibration ([1]; 2-MeTHF, 50° C. for 4 days): Form P
XRPD after competitive equilibration ([1]; 2-MeTHF, 70° C. for 4 days): Form P
XRPD after competitive equilibration ([1]; Acetone, 25° C. for 4 days): Form P
XRPD after competitive equilibration ([1]; Acetone, 50° C. for 4 days): Form P
XRPD after competitive equilibration ([1]; Acetone, 70° C. for 4 days): Form P
XRPD after competitive equilibration ([1]; Acetone/water (v:v = 36:64) a.w = 0.9, 25° C. for 4 days): Form P
XRPD after competitive equilibration ([1]; Acetone/water (v:v = 36:64) a.w = 0.9, 50° C. for 4 days): Form P
XRPD after competitive equilibration ([1]; Acetone/water (v:v = 36:64) a.w = 0.9, 70° C. for 4 days): Form P
XRPD after competitive equilibration ([1]; Acetone/water (v:v = 76.5:23.5) a.w = 0.7, 25° C. for 4 days): Form P
XRPD after competitive equilibration ([1]; Acetone/water (v:v = 76.5:23.5) a.w = 0.7, 50° C. for 4 days): Form P
XRPD after competitive equilibration ([1]; Acetone/water (v:v = 76.5:23.5) a.w = 0.7, 70° C. for 4 days): Form P
XRPD after competitive equilibration ([1]; Acetone/water (v:v = 95.2:4.8) a.w = 0.4, 25° C. for 4 days): Form P
XRPD after competitive equilibration ([1]; Acetone/water (v:v = 95.2:4.8) a.w = 0.4, 50° C. for 4 days): Form P
XRPD after competitive equilibration ([1]; Acetone/water (v:v = 95.2:4.8) a.w = 0.4, 70° C. for 4 days): Form P
XRPD after competitive equilibration ([1]; Acetonitrile, 25° C. for 4 days): Form P
XRPD after competitive equilibration ([1]; Acetonitrile, 50° C. for 4 days): Form P
XRPD after competitive equilibration ([1]; Acetonitrile, 70° C. for 4 days): Form P
XRPD after competitive equilibration ([1]; DCM, 25° C. for 4 days): Form P
XRPD after competitive equilibration ([1]; DMSO/water (v:v = 1:5 a.w. = 0.94), 80° C. for about 6 d): Form P
XRPD after competitive equilibration ([1]; DMSO/water (v:v = 1:5 a.w. = 0.94), 90° C. for about 8 d): Form C (majority) +
XRPD after competitive equilibration ([1]; DMSO/water (v:v = 1:5 a.w. = 0.94), 90° C. for about 18 d): Form C
XRPD after competitive equilibration ([1]; Ethanol, 25° C. for 4 days): Form P
XRPD after competitive equilibration ([1]; Ethanol, 50° C. for 4 days): Form P
XRPD after competitive equilibration ([1]; Ethanol, 70° C. for 4 days): Form P
XRPD after competitive equilibration ([1]; Ethyl acetate, 25° C. for 4 days): Form P
XRPD after competitive equilibration ([1]; Ethyl acetate, 50° C. for 4 days): Form P
XRPD after competitive equilibration ([1]; Ethyl acetate, 70° C. for 4 days): Form P
XRPD after competitive equilibration ([1]; Heptane, 25° C. for 4 days): Form P
XRPD after competitive equilibration ([1]; Heptane, 50° C. for 4 days): Form P
XRPD after competitive equilibration ([1]; Heptane, 70° C. for 4 days): Form P
XRPD after competitive equilibration ([1]; Heptane, 90° C. for about 8 d): Form C + Form P
XRPD after competitive equilibration ([1]; Heptane, 90° C. for about 18 d): Form C + Form P
XRPD after competitive equilibration ([1]; Isopropyl acetate, 25° C. for 4 days): Form P
XRPD after competitive equilibration ([1]; Isopropyl acetate, 50° C. for 4 days): Form P
XRPD after competitive equilibration ([1]; Isopropyl acetate, 70° C. for 4 days): Form P
XRPD after competitive equilibration ([1]; MEK, 25° C. for 4 days): Form P
XRPD after competitive equilibration ([1]; MEK, 50° C. for 4 days): Form P
XRPD after competitive equilibration ([1]; MEK, 70° C. for 4 days): Form P
XRPD after competitive equilibration ([1]; NMP, 25° C. for 4 days): Form Q, NMP
XRPD after competitive equilibration ([1]; THF, 25° C. for 4 days): Form P
XRPD after competitive equilibration ([1]; THF, 50° C. for 4 days): Form P
XRPD after competitive equilibration ([1]; Toluene, 90° C. for about 8 d): Form C
XRPD after competitive equilibration ([1]; Water, 25° C. for 4 days): Form P
XRPD after competitive equilibration ([1]; Water, 50° C. for 4 days): Form P
XRPD after competitive equilibration ([1]; Water, 70° C. for 4 days): Form P
XRPD after competitive equilibration ([1]; Water, 90° C. for about 8 d): Form C + Form P
XRPD after competitive equilibration ([1]; Water, 90° C. for about 18 d): Form P

Cc1nc(-c2c[nH]c3c(C#N)cccc23)cnc1OCC(C)(C)O [Form D, 3-(5-(2-hydroxy-2-methylpropoxy)-6-methylpyrazin-2-yl)-1H-indole-7-carbonitrile]
Form after desolvation [3]: converts to Form C

Cc1nc(-c2c[nH]c3c(C#N)cccc23)cnc1OCC(C)(C)O [Form E, 3-(5-(2-hydroxy-2-methylpropoxy)-6-methylpyrazin-2-yl)-1H-indole-7-carbonitrile]
Form after heating ([3]; heating to 100° C. by TGA and cooled to room temperature): converts to physical mixture of Form F and Form G

Cc1nc(-c2c[nH]c3c(C#N)cccc23)cnc1OCC(C)(C)O [Form G, 3-(5-(2-hydroxy-2-methylpropoxy)-6-methylpyrazin-2-yl)-1H-indole-7-carbonitrile]
Form after equilibration ([5]; DMSO/water system at 25° C. for 6 days): converts to anhydrate Form H

Cc1nc(-c2c[nH]c3c(C#N)cccc23)cnc1OCC(C)(C)O [Form I, 3-(5-(2-hydroxy-2-methylpropoxy)-6-methylpyrazin-2-yl)-1H-indole-7-carbonitrile]
Form after heating ([3]; heating to 140° C. by TGA and cooled to room temperature): converted to physical mixture of Form C, Form N and an unknown peak

Cc1nc(-c2c[nH]c3c(C#N)cccc23)cnc1OCC(C)(C)O [Form M, 3-(5-(2-hydroxy-2-methylpropoxy)-6-methylpyrazin-2-yl)-1H-indole-7-carbonitrile]
Form after equilibration ([5]; MeOH at 25° C. for another 1 day): converts to Form B

Cc1nc(-c2c[nH]c3c(C#N)cccc23)cnc1OCC(C)(C)O [Form N, 3-(5-(2-hydroxy-2-methylpropoxy)-6-methylpyrazin-2-yl)-1H-indole-7-carbonitrile]
Relative stability in water activity experiments [4]: converts to Form C

Cc1nc(-c2c[nH]c3c(C#N)cccc23)cnc1OCC(C)(C)O [Form P + Form X + Form Y, 3-(5-(2-hydroxy-2-methylpropoxy)-6-methylpyrazin-2-yl)-1H-indole-7-carbonitrile]
XRPD after competitive equilibration ([1]; 2-MeTHF, 25° C. for about 3 days): Form P
XRPD after competitive equilibration ([1]; 2-MeTHF, 50° C. for about 3 days): Form P
XRPD after competitive equilibration ([1]; 2-MeTHF, 70° C. for about 3 days): Form P

Cc1nc(-c2c[nH]c3c(C#N)cccc23)cnc1OCC(C)(C)O [Form Q, 3-(5-(2-hydroxy-2-methylpropoxy)-6-methylpyrazin-2-yl)-1H-indole-7-carbonitrile]
Form after desolvation ([3]; desolvation by heating to 150° C.): converted to a physical mixture of Form C (majority) and Form Q

Cc1nc(-c2c[nH]c3c(C#N)cccc23)cnc1OCC(C)(C)O [Form R, 3-(5-(2-hydroxy-2-methylpropoxy)-6-methylpyrazin-2-yl)-1H-indole-7-carbonitrile]
Form conversion (relative stability) ([1]; at both 25° C. and 70° C.): converts to Form P

Cc1nc(-c2c[nH]c3c(C#N)cccc23)cnc1OCC(C)(C)O [Form S, 3-(5-(2-hydroxy-2-methylpropoxy)-6-methylpyrazin-2-yl)-1H-indole-7-carbonitrile]
Relative stability in water activity experiments [4]: converted to anhydrate Form P

Cc1nc(-c2c[nH]c3c(C#N)cccc23)cnc1OCC(C)(C)O [Form U, 3-(5-(2-hydroxy-2-methylpropoxy)-6-methylpyrazin-2-yl)-1H-indole-7-carbonitrile]
Form after desolvation [3]: converted to Form C

Cc1nc(-c2c[nH]c3c(C#N)cccc23)cnc1OCC(C)(C)O [Form X, 3-(5-(2-hydroxy-2-methylpropoxy)-6-methylpyrazin-2-yl)-1H-indole-7-carbonitrile]
Form conversion (relative stability) ([1]; at 25° C., 50° C. and 70° C.): converts to Form P
